# Assay results published in patent US20050042688A1, “Cellular analysis” (priority 2003, published 2005).
# System: T cells
# Conditions: whole blood collected in EDTA versus heparin as anticoagulant, 37° C., activated with PDBu/ionomycin
# Procedure: In this example, whole blood was collected from a donor in collection tubes containing heparin (curve 1) or EDTA (curve 2), respectively, as the anticoagulants. Blood samples were then incubated at 37° C. and activated with phorbol ester and a calcium ionophore (PDBu/I, phorbol-12,13-dibutyrate/ionomycin).
smiles,measurement,value
O=C(O)CN(CCN(CC(=O)O)CC(=O)O)CC(=O)O [EDTA],responsiveness of T-cells (level of inducible actin polymerization by PDBu/I),dramatic decrease in the responsiveness of T-cells
